Measured values published in US8883745B2, “C—glycolipids with enhanced Th-1 profile” (New York University, priority 2006, dated 2014).

Columns and labels:
Assay type in all cases: in vivo
IL-12 [1] = assay: IL-12 levels in sera upon i.v. glycolipid administration to BALB/c mice (ELISA); design: IL-12 levels, test 1 / IL-12 levels, test 2 / IL-12 levels, average / IL-12 levels, Total: unit not given here
Procedure, shortened: (§1)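 Female C57BL/6 or BALB/c mice (5–6 weeks old) received 1 μg glycolipid i.v. in PBS. Sera were collected at 0, 2, 6, 12, 24, 48 and 72 h post-dose. Cytokine levels were quantified by sandwich ELISA on 1:10-diluted sera, with A450 read against known standards.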

IFN-γ = IFN-γ levels in sera upon i.v. glycolipid administration to BALB/c mice (ELISA); design: IFN-γ levels, test 1 / IFN-γ levels, test 2 / IFN-γ levels, average / IFN-γ levels, Total: unit not given here; conditions: BALB/c
Procedure, shortened: as §1

IL-4 = IL-4 levels in sera upon i.v. glycolipid administration to BALB/c mice (ELISA); design: unit not given here
Procedure, shortened: as §1

IL-12 [2] = assay: IL-12 levels in sera upon i.v. glycolipid administration to C57BL/6 mice (ELISA); design: IL-12 levels, test 1 / IL-12 levels, test 2 / IL-12 levels, average / IL-12 levels, Total: unit not given here
Procedure, shortened: as §1

[3] = ratio calculated from Tables 1-6

Which “IL-12/IL-4 (BALB/c)” value (IL-12 [1]; [3]) does the source give for CCCCCCCCCCCCCC[C@@H](O)[C@@H](O)[C@H](CC[C@H]1O[C@H](CO)[C@H](O)[C@H](O)[C@H]1O)NC(=O)CCCCCCCCCCCCCCCCCCCOCCCCCC [A-4] here?
The value was 12.

What about the “IL-12 levels, average” value (IL-12 [1]; serum, hour 0) of the same compound?
The value was 5.

What about the “IL-12 levels, test 1” value (IL-12 [1]; serum, hour 0) of the same compound?
Its value is 5.

And the “IL-12 levels, test 2” value (IL-12 [1]; serum, hour 0)?
The value was 5.

What about the “IL-12 levels, average” value (IL-12 [1]; serum, hour 2) of the same compound?
Its value is 54.5.

And the “IL-12 levels, test 1” value (IL-12 [1]; serum, hour 2)?
Its value is 57.

And the “IL-12 levels, test 2” value (IL-12 [1]; serum, hour 2)?
The value was 52.

And the “IL-12 levels, average” value (IL-12 [1]; serum, hour 6)?
The value was 914.5.

And the “IL-12 levels, test 1” value (IL-12 [1]; serum, hour 6)?
The value was 730.

And the “IL-12 levels, test 2” value (IL-12 [1]; serum, hour 6)?
The value was 1099.

And the “IL-12 levels, average” value (IL-12 [1]; serum, hour 12)?
The value was 4463.

What about the “IL-12 levels, test 1” value (IL-12 [1]; serum, hour 12) of the same compound?
The value was 3799.

What about the “IL-12 levels, test 2” value (IL-12 [1]; serum, hour 12) of the same compound?
The value was 5127.

What about the “IL-12 levels, average” value (IL-12 [1]; serum, hour 24) of the same compound?
Its value is 333.5.

What about the “IL-12 levels, test 1” value (IL-12 [1]; serum, hour 24) of the same compound?
The value was 396.

And the “IL-12 levels, test 2” value (IL-12 [1]; serum, hour 24)?
Its value is 271.

What about the “IL-12 levels, average” value (IL-12 [1]; serum, hour 48) of the same compound?
Its value is 89.

What about the “IL-12 levels, test 1” value (IL-12 [1]; serum, hour 48) of the same compound?
The value was 58.

And the “IL-12 levels, test 2” value (IL-12 [1]; serum, hour 48)?
The value was 120.

What about the “IL-12 levels, average” value (IL-12 [1]; serum, hour 72) of the same compound?
Its value is 64.5.

What about the “IL-12 levels, test 1” value (IL-12 [1]; serum, hour 72) of the same compound?
Its value is 78.

What about the “IL-12 levels, test 2” value (IL-12 [1]; serum, hour 72) of the same compound?
Its value is 51.

And the “IL-12 levels, Total” value (IL-12 [1]; serum, total over hours 0-72)?
The value was 5926.

What about the “IFN-γ/IL-4 (BALB/c)” value (IFN-γ; [3]) of the same compound?
Its value is 44.

And the “IFN-γ levels, average” value (IFN-γ; serum, hour 0)?
Its value is 27.

And the “IFN-γ levels, test 1” value (IFN-γ; serum, hour 0)?
Its value is 27.

What about the “IFN-γ levels, test 2” value (IFN-γ; serum, hour 0) of the same compound?
The value was 27.

What about the “IFN-γ levels, average” value (IFN-γ; serum, hour 2) of the same compound?
The value was 142.5.

And the “IFN-γ levels, test 1” value (IFN-γ; serum, hour 2)?
Its value is 140.

And the “IFN-γ levels, test 2” value (IFN-γ; serum, hour 2)?
The value was 145.

What about the “IFN-γ levels, average” value (IFN-γ; serum, hour 6) of the same compound?
The value was 1742.

And the “IFN-γ levels, test 1” value (IFN-γ; serum, hour 6)?
Its value is 1778.

What about the “IFN-γ levels, test 2” value (IFN-γ; serum, hour 6) of the same compound?
The value was 1706.

What about the “IFN-γ levels, average” value (IFN-γ; serum, hour 12) of the same compound?
The value was 6513.5.

What about the “IFN-γ levels, test 1” value (IFN-γ; serum, hour 12) of the same compound?
The value was 4988.

And the “IFN-γ levels, test 2” value (IFN-γ; serum, hour 12)?
Its value is 8039.

And the “IFN-γ levels, average” value (IFN-γ; serum, hour 24)?
The value was 14100.

And the “IFN-γ levels, test 1” value (IFN-γ; serum, hour 24)?
Its value is 14000.

And the “IFN-γ levels, test 2” value (IFN-γ; serum, hour 24)?
The value was 14200.

What about the “IFN-γ levels, average” value (IFN-γ; serum, hour 48) of the same compound?
The value was 929.5.

What about the “IFN-γ levels, test 1” value (IFN-γ; serum, hour 48) of the same compound?
Its value is 752.

And the “IFN-γ levels, test 2” value (IFN-γ; serum, hour 48)?
The value was 1107.

And the “IFN-γ levels, average” value (IFN-γ; serum, hour 72)?
Its value is 56.5.

What about the “IFN-γ levels, test 1” value (IFN-γ; serum, hour 72) of the same compound?
The value was 47.

What about the “IFN-γ levels, test 2” value (IFN-γ; serum, hour 72) of the same compound?
Its value is 66.

What about the “IFN-γ levels, Total” value (IFN-γ; serum, total over hours 0-72) of the same compound?
Its value is 22676.

What about the “IL-4 level, average” value (IL-4; hour 0) of the same compound?
Its value is 27.

And the “IL-4 level, test 1” value (IL-4; hour 0)?
The value was 27.

What about the “IL-4 level, test 2” value (IL-4; hour 0) of the same compound?
Its value is 27.

What about the “IL-4 level, average” value (IL-4; hour 2) of the same compound?
The value was 207.

What about the “IL-4 level, test 1” value (IL-4; hour 2) of the same compound?
Its value is 200.

And the “IL-4 level, test 2” value (IL-4; hour 2)?
Its value is 214.

What about the “IL-4 level, average” value (IL-4; hour 6) of the same compound?
The value was 79.5.

What about the “IL-4 level, test 1” value (IL-4; hour 6) of the same compound?
Its value is 85.

What about the “IL-4 level, test 2” value (IL-4; hour 6) of the same compound?
The value was 74.

What about the “IL-4 level, average” value (IL-4; hour 12) of the same compound?
The value was 58.

What about the “IL-4 level, test 1” value (IL-4; hour 12) of the same compound?
Its value is 64.

And the “IL-4 level, test 2” value (IL-4; hour 12)?
The value was 52.

What about the “IL-4 level, average” value (IL-4; hour 24) of the same compound?
The value was 67.5.

What about the “IL-4 level, test 1” value (IL-4; hour 24) of the same compound?
Its value is 50.

What about the “IL-4 level, test 2” value (IL-4; hour 24) of the same compound?
The value was 85.

And the “IL-4 level, average” value (IL-4; hour 48)?
Its value is 59.

What about the “IL-4 level, test 1” value (IL-4; hour 48) of the same compound?
Its value is 52.

And the “IL-4 level, test 2” value (IL-4; hour 48)?
Its value is 66.

And the “IL-4 level, average” value (IL-4; hour 72)?
Its value is 12.

And the “IL-4 level, test 1” value (IL-4; hour 72)?
The value was 12.

And the “IL-4 level, test 2” value (IL-4; hour 72)?
The value was 12.

What about the “IL-4 level, Total” value (IL-4; total over hours 0-72) of the same compound?
The value was 511.

And the “IL-12/IL-4 (B6)” value (IL-12 [2]; C57BL/6, ratio calculated from Tables 1-6)?
The value was 1.3.

And the “IL-12 levels, average” value (IL-12 [2]; C57BL/6, serum, hour 0)?
The value was 5.

What about the “IL-12 levels, test 1” value (IL-12 [2]; C57BL/6, serum, hour 0) of the same compound?
Its value is 5.

And the “IL-12 levels, test 2” value (IL-12 [2]; C57BL/6, serum, hour 0)?
The value was 5.

And the “IL-12 levels, average” value (IL-12 [2]; C57BL/6, serum, hour 2)?
The value was 458.5.

What about the “IL-12 levels, test 1” value (IL-12 [2]; C57BL/6, serum, hour 2) of the same compound?
Its value is 490.

And the “IL-12 levels, test 2” value (IL-12 [2]; C57BL/6, serum, hour 2)?
The value was 427.

And the “IL-12 levels, average” value (IL-12 [2]; C57BL/6, serum, hour 6)?
The value was 685.5.

And the “IL-12 levels, test 1” value (IL-12 [2]; C57BL/6, serum, hour 6)?
Its value is 740.

What about the “IL-12 levels, test 2” value (IL-12 [2]; C57BL/6, serum, hour 6) of the same compound?
Its value is 631.

And the “IL-12 levels, average” value (IL-12 [2]; C57BL/6, serum, hour 12)?
Its value is 124.

What about the “IL-12 levels, test 1” value (IL-12 [2]; C57BL/6, serum, hour 12) of the same compound?
Its value is 18.

And the “IL-12 levels, test 2” value (IL-12 [2]; C57BL/6, serum, hour 12)?
The value was 230.

And the “IL-12 levels, average” value (IL-12 [2]; C57BL/6, serum, hour 24)?
The value was 0.

And the “IL-12 levels, test 1” value (IL-12 [2]; C57BL/6, serum, hour 24)?
Its value is 0.

What about the “IL-12 levels, test 2” value (IL-12 [2]; C57BL/6, serum, hour 24) of the same compound?
Its value is 0.

What about the “IL-12 levels, average” value (IL-12 [2]; C57BL/6, serum, hour 48) of the same compound?
Its value is 0.

And the “IL-12 levels, test 1” value (IL-12 [2]; C57BL/6, serum, hour 48)?
Its value is 0.

And the “IL-12 levels, test 2” value (IL-12 [2]; C57BL/6, serum, hour 48)?
Its value is 0.

What about the “IL-12 levels, average” value (IL-12 [2]; C57BL/6, serum, hour 72) of the same compound?
Its value is 0.

What about the “IL-12 levels, test 1” value (IL-12 [2]; C57BL/6, serum, hour 72) of the same compound?
Its value is 0.

And the “IL-12 levels, test 2” value (IL-12 [2]; C57BL/6, serum, hour 72)?
The value was 0.

And the “IL-12 levels, Total” value (IL-12 [2]; C57BL/6, serum, total over hours 0-72)?
The value was 1274.
